Data taken from patent US20260198493A1, “HYDRAZIDE COMPOUND AND AGRICULTURAL/HORTICULTURAL FUNGICIDE” (Nippon Soda Co., Ltd., priority 2022, published 2026).

What was measured:
Fusarium graminearum = assay: microbe, parasite or virus in culture; type: cell-based; settings: 96 h, read-out: growth inhibition ratio
Venturia inaequalis = assay: Control test of apple scab disease (sprayed young apple seedlings); type: in vivo; settings: 125 ppm by mass spray, 12 to 14 days after inoculation
Botrytis cinerea [1] = assay: Control test of cucumber gray mold (sprayed young cucumber seedlings); type: in vivo; settings: 96 h, four days after inoculation; for pest or weed control at 25 ppm: 25 ppm by mass spray; for pest or weed control at 125 ppm: 125 ppm by mass spray
Description: Then, the drug liquid was sprayed onto young cucumber seedlings cultivated in a nursery pot (variety “Jihai”-based, cotyledon stage), and then air-dried. […] They were left still in a moist room at 20° C. Four days after inoculation, leaves of the young cucumber seedlings were visually observed, and the control value was calculated from the lesion area ratio in accordance with the following equation. [formula]

Colletotrichum acutatum = assay: Fungicidal effect test against fungi causing apple anthracnose; settings: 96 h, read-out: growth inhibition ratio
[2] = test system: Erysiphe graminis f.sp.tritici; assay: Control test of wheat powdery mildew disease (sprayed young wheat seedlings); type: in vivo; settings: Blumeria graminis, 144 h, 125 ppm by mass spray, six days after inoculation
Glomerella cingulata = assay: Fungicidal effect test against fungi causing grape ripe rot disease; settings: Colletotrichum gloeosporioides, 72 h, read-out: growth inhibition ratio
Botrytis cinerea [3] = type: cell-based; settings: 120 h, 25 ppm by volume, Vogel medium, 20° C., five days, dark, read-out: growth inhibition ratio

COC(=O)N(Cc1ccc(C)cc1C)NC(=O)c1cc(C(F)(F)F)ncc1Oc1cccc(C2CC2)c1F [b-204]
≥ 75%: inhibition of growth at 25 ppm (Fusarium graminearum) | pest or weed control at 125 ppm (Venturia inaequalis) | pest or weed control at 25 ppm (Botrytis cinerea [1]) | pest or weed control at 125 ppm (Botrytis cinerea [1]) | inhibition of growth at 25 ppm (Colletotrichum acutatum) | pest or weed control at 125 ppm [2] | inhibition of growth at 25 ppm (Glomerella cingulata) | inhibition of growth at 25 ppm (Botrytis cinerea [3])

COC(=O)N(Cc1ccc(C)cc1C)NC(=O)c1c(OC)cncc1Oc1cccc(C2CC2)c1F [b-208]
≥ 75%: inhibition of growth at 25 ppm (Fusarium graminearum) | pest or weed control at 125 ppm (Venturia inaequalis) | pest or weed control at 25 ppm (Botrytis cinerea [1]) | pest or weed control at 125 ppm (Botrytis cinerea [1]) | inhibition of growth at 25 ppm (Colletotrichum acutatum) | pest or weed control at 125 ppm [2] | inhibition of growth at 25 ppm (Glomerella cingulata) | inhibition of growth at 25 ppm (Botrytis cinerea [3])

CCc1cncc(Oc2cccc(C3CC3)c2F)c1C(=O)NN(Cc1ccc(C)cc1C)C(=O)OC [b-212]
≥ 75%: inhibition of growth at 25 ppm (Fusarium graminearum) | pest or weed control at 125 ppm (Venturia inaequalis) | pest or weed control at 25 ppm (Botrytis cinerea [1]) | pest or weed control at 125 ppm (Botrytis cinerea [1]) | inhibition of growth at 25 ppm (Colletotrichum acutatum) | pest or weed control at 125 ppm [2] | inhibition of growth at 25 ppm (Glomerella cingulata) | inhibition of growth at 25 ppm (Botrytis cinerea [3])

COC(=O)N(Cc1ccc(C)cc1C)NC(=O)c1c(Oc2cccc(C3CC3)c2)cnnc1OC(C)C [b-223]
≥ 75%: inhibition of growth at 25 ppm (Fusarium graminearum) | pest or weed control at 125 ppm (Venturia inaequalis) | pest or weed control at 25 ppm (Botrytis cinerea [1]) | pest or weed control at 125 ppm (Botrytis cinerea [1]) | inhibition of growth at 25 ppm (Colletotrichum acutatum) | pest or weed control at 125 ppm [2] | inhibition of growth at 25 ppm (Glomerella cingulata) | inhibition of growth at 25 ppm (Botrytis cinerea [3])

COC(=O)N(Cc1ccc(C)cc1C)NC(=O)c1c(Oc2cccc(Cl)c2F)nnc(Cl)c1C [b-227]
≥ 75%: inhibition of growth at 25 ppm (Fusarium graminearum) | pest or weed control at 125 ppm (Venturia inaequalis) | pest or weed control at 25 ppm (Botrytis cinerea [1]) | pest or weed control at 125 ppm (Botrytis cinerea [1]) | inhibition of growth at 25 ppm (Colletotrichum acutatum) | pest or weed control at 125 ppm [2] | inhibition of growth at 25 ppm (Glomerella cingulata) | inhibition of growth at 25 ppm (Botrytis cinerea [3])

COC(=O)N(Cc1ccc(C)cc1C)NC(=O)c1c(C)cnnc1Oc1cccc(C2CC2)c1F [b-228]
≥ 75%: inhibition of growth at 25 ppm (Fusarium graminearum) | pest or weed control at 125 ppm (Venturia inaequalis) | pest or weed control at 25 ppm (Botrytis cinerea [1]) | pest or weed control at 125 ppm (Botrytis cinerea [1]) | inhibition of growth at 25 ppm (Colletotrichum acutatum) | pest or weed control at 125 ppm [2] | inhibition of growth at 25 ppm (Glomerella cingulata) | inhibition of growth at 25 ppm (Botrytis cinerea [3])

COC(=O)N(Cc1ccc(OC)cc1C)NC(=O)c1c(C)cncc1Oc1cccc(C2CC2)c1 [b-229]
≥ 75%: inhibition of growth at 25 ppm (Fusarium graminearum) | pest or weed control at 125 ppm (Venturia inaequalis) | pest or weed control at 25 ppm (Botrytis cinerea [1]) | pest or weed control at 125 ppm (Botrytis cinerea [1]) | inhibition of growth at 25 ppm (Colletotrichum acutatum) | pest or weed control at 125 ppm [2] | inhibition of growth at 25 ppm (Glomerella cingulata) | inhibition of growth at 25 ppm (Botrytis cinerea [3])

CCc1cncc(Oc2cccc(C3CC3)c2F)c1C(=O)NN(Cc1ccc(OC)cc1C)C(=O)OC [b-230]
≥ 75%: inhibition of growth at 25 ppm (Fusarium graminearum) | pest or weed control at 125 ppm (Venturia inaequalis) | pest or weed control at 25 ppm (Botrytis cinerea [1]) | pest or weed control at 125 ppm (Botrytis cinerea [1]) | inhibition of growth at 25 ppm (Colletotrichum acutatum) | pest or weed control at 125 ppm [2] | inhibition of growth at 25 ppm (Glomerella cingulata) | inhibition of growth at 25 ppm (Botrytis cinerea [3])

COC(=O)N(Cc1ccc(C)cc1C)NC(=O)c1c(Cl)cncc1Oc1cccc(Cl)c1F [b-231]
≥ 75%: inhibition of growth at 25 ppm (Fusarium graminearum) | pest or weed control at 125 ppm (Venturia inaequalis) | pest or weed control at 25 ppm (Botrytis cinerea [1]) | pest or weed control at 125 ppm (Botrytis cinerea [1]) | inhibition of growth at 25 ppm (Colletotrichum acutatum) | pest or weed control at 125 ppm [2] | inhibition of growth at 25 ppm (Glomerella cingulata) | inhibition of growth at 25 ppm (Botrytis cinerea [3])

Cc1ccc(CN(NC(=O)c2cc(C)nnc2Oc2cccc(C3CC3)c2F)C(=O)OC2COC2)c(C)c1 [b-232]
≥ 75%: inhibition of growth at 25 ppm (Fusarium graminearum) | pest or weed control at 125 ppm (Venturia inaequalis) | pest or weed control at 25 ppm (Botrytis cinerea [1]) | pest or weed control at 125 ppm (Botrytis cinerea [1]) | inhibition of growth at 25 ppm (Colletotrichum acutatum) | pest or weed control at 125 ppm [2] | inhibition of growth at 25 ppm (Glomerella cingulata) | inhibition of growth at 25 ppm (Botrytis cinerea [3])
